Here are results for two substances from US10077309B2, “Compositions and methods for targeting of the surfactant protein A receptor” (The Penn State Research Foundation, priority 2014, dated 2018).

This test concerns IAV infection of macrophages / influenza binding to SP-R210. The test is classed as cell-based, influenza A virus.

“SP-A: human surfactant protein A isolated from therapeutic lung lavage of alveolar proteinosis patients”: the “competition with influenza virus for binding to the receptor SP-R210” value was “competitively inhibits binding of the influenza virus to the receptor”. For “desialylated SP-A: desialylated surfactant protein A”, the “competition with influenza virus for binding to the receptor SP-R210” value was “compete for influenza binding to the same receptor”. Moreover, the “block of infection of macrophages with IAV” value (flow cytometry) is listed as “blocks infection of macrophages with IAV”.
